Laboratory results from patent US9867809B2, “Encapsulated active ingredients for controlled enteric release” (Kemin Industries, Inc., priority 2015, dated 2018).

Tests used:
[1] = Butyric acid in intestinal contents and excreta of broilers by gas chromatography; assay type: in vivo, chicken; details: day 28, birds fed the supplemented diet
Experimental: On days 14 and 28, after weighing, 4 birds per cage were harvested. From each of the harvested birds, a 1 inch section from the beginning of the ileum was cut off and flash frozen. The remaining intestinal tract was cut into 3 sections (upper, middle and cecal), the intestinal contents for each section were pooled by cage, and frozen in liquid nitrogen. A sample of excreta was collected by cage and frozen.
The samples of the feed and intestinal contents were analyzed for butyric acid by gas chromatography.

[2] = system: male Cobb×Cobb 500 broiler chickens; experiment: Performance trial in broiler chickens; assay type: in vivo, chicken
Excerpt: A chicken, broiler performance trial was completed to understand if granules with different in-vitro dissolution rates would perform differently in an animal model. […] Therefore two different granules were made, one with a fast dissolution, and one with a slow dissolution. […] The experiment used 72 cages of 10 male Cobb×Cobb 500 broiler chickens. The treatments were replicated in eighteen blocks where the four treatments were randomized within each block. All the treatments contained equal amount of zinc and treatments B, C and D had same amount of butyric acid. The diet given in Tables 5 and 6 was supplemented with the treatments in Table 4. The starter diet was fed day 0 to 14 and the grower diet was fed day 14 to 28. All diets were fed as non-pelleted mash feed. Bird weights and feed consumption by cage were recorded on Days 0, 14, 21, 28.

[3] = after 28 days, supplement in basal diet, 153 ppm zinc

Compound | butyric acid in the ileal contents [1] | Avg. Wt. [2, 3] | Feed Conversion [2, 3] | Feed Intake [2, 3] | Avg. Wt. ([2]; in vivo) | Feed Conversion ([2]; in vivo) | Feed Intake ([2]; in vivo)
CCCC(=O)[O-].CCCC(=O)[O-].[Zn+2] [ZBA Powder, zinc salt of butyric acid in a molar ratio of 1:2] | no detectible butyric acid | 1.043 kg | 1.589 | 11.06 | – | – | –
O=S(=O)([O-])[O-].[Zn+2] [Zinc Sulfate Powder, Zinc Sulfate, reference compound] | – | – | – | – | 1.010 kg | 1.620 | 10.93
